The values that follow come from US7728002B2, “Use of pyrrolopyridine compounds for activating PPAR receptors and treatment of conditions involving such receptors” (Laboratoires Fournier S.A., priority 2005, dated 2010).

The subject of one test is db/db mice. Put plainly: db/db mice model: serum glucose, triglycerides, cholesterol. Format: in vivo. The conditions noted are these: serum 4 hours after final gavage. The protocol: The test protocol is as follows:
Homozygous male C57BL/Ks-db mice (db/db mice), 11-13 weeks old at the start of the studies, are divided into groups of 9-10 animals. The products are administered orally, once a day for 5 days. A group of mice receives the vehicle alone (methylcellulose solution at 0.5% or 1%). A blood sample is taken from the retro-orbital sinus before treatment and 4 hours after the final gavage. After centrifugation, the serum is collected and the levels of cholesterol, triglycerides and glucose are measured using a multiparameter analyzer with commercial products. The results are expressed as a percentage of variation on the final day relative to the control group.

The test system of test [1] is cells of murine muscle origin C2C12. Briefly: β-oxidation of 14C-oleate on C2C12 cells differentiated as myotubes. Format: cell-based. The conditions noted are these: 10 μM, 48 hours incubation. How it is done: A second series of tests was performed with the compounds according to the invention, with the aim of confirming the activity deduced from their affinity for the receptors mentioned previously. This test consists in measuring the β-oxidation on cells of human hepatic origin HuH7 and cells of murine muscle origin C2C12 after differentiation as myotubes. The cells are inoculated in Petri dishes comprising a central well. The products are added to the culture medium and incubated for 48 hours at different concentrations. After incubation for 22 hours, ^14C-radiolabeled oleate (oleate 1-C14) is added to the culture medium. The β-oxidation reaction is stopped two hours later by adding 40% perchloric acid. The CO2 released during the oxidation of the oleate is trapped with KOH solution and then counted. Each test is performed three times. The results are expressed as a percentage of variation relative to the control dishes (dishes without compounds). According to this test, the compounds according to the invention increase the β-oxidation by up to +145% at a concentration of 10 μM on HuH7 cells.

[2] abbreviates: 10 mg/kg orally once a day for 5 days.
The mark [3] stands for this setting: 100 mg/kg orally once a day for 5 days.
Where [4] appears, read: 3 mg/kg orally once a day for 5 days.

Molecules are shown by their SMILES.

Take `Cc1cc(C)cc(S(=O)(=O)n2c(CCCCC(=O)O)cc3nc(Cl)ccc32)c1` [Ex. 259, 5-Chloro-1-[(3,5-dimethylphenyl)sulfonyl]-1H-pyrrolo[3,2-b]pyridine-2-pentanoic acid]: in the test with db/db mice (setting [2]), the “Cholesterol, percentage of variation relative to the control group” value is on record as “+32%”; the “Glucose, percentage of variation relative to the control group” value is −51%; the “Triglycerides, percentage of variation relative to the control group” value is reported as −16%.
Regarding `O=C(O)CCCc1cc2nc(Cl)ccc2n1S(=O)(=O)c1ccc(-c2ccncc2)cc1` [Ex. 293, 5-Chloro-1-[[4-(4-pyridyl)phenyl]sulfonyl]-1H-pyrrolo[3,2-b]pyridine-2-butanoic acid], in the test with db/db mice (setting [2]), the “Cholesterol, percentage of variation relative to the control group” value was “+16%”; the “Glucose, percentage of variation relative to the control group” value is given as −24%; the “Triglycerides, percentage of variation relative to the control group” value is −15%.
As for `O=C(O)CCc1cc2nc(Cl)ccc2n1S(=O)(=O)c1ccccc1` [Example 2, 5-Chloro-1-(phenylsulfonyl)-1H-pyrrolo[3,2-b]pyridine-2-propanoic acid], in the test with db/db mice (setting [2]), the “Cholesterol, percentage of variation relative to the control group” value is recorded as “+41%”; the “Glucose, percentage of variation relative to the control group” value is −36%; the “Triglycerides, percentage of variation relative to the control group” value was −32%.
Consider `O=C(O)CCCc1cc2nc(Cl)ccc2n1S(=O)(=O)c1ccc2ncsc2c1` [Example 4, 1-(6-Benzothiazolylsulfonyl)-5-chloro-1H-pyrrolo[3,2-b]pyridine-2-butanoic acid], for which, in the test on db/db mice (setting [2]), the “Cholesterol, percentage of variation relative to the control group” value is given as “+4%”; the “Glucose, percentage of variation relative to the control group” value was −57%; the “Triglycerides, percentage of variation relative to the control group” value is recorded as −45%.
Turning to `O=C(O)CCCc1cc2nc(Cl)ccc2n1S(=O)(=O)c1ccccc1` [Example 10, 5-Chloro-1-(phenylsulfonyl)-1H-pyrrolo[3,2-b]pyridine-2-butanoic acid], the “increase of β-oxidation, percentage of variation relative to control dishes” value in test [1] is recorded as 70%.
Take `O=C(O)CCCc1cc2nc(C(F)(F)F)ccc2n1S(=O)(=O)c1ccccc1` [Example 20, 1-(Phenylsulfonyl)-5-(trifluoromethyl)-1H-pyrrolo[3,2-b]pyridine-2-butanoic acid]: in the test with db/db mice (setting [2]), the “Cholesterol, percentage of variation relative to the control group” value is listed as “+13%”; the “Glucose, percentage of variation relative to the control group” value is recorded as −72%; the “Triglycerides, percentage of variation relative to the control group” value is on record as −65%.
`CC(C)OC(=O)C(C)(C)Oc1ccc(C(=O)c2ccc(Cl)cc2)cc1` [Fenofibrate, fenofibrate, reference compound]: in the test on db/db mice (setting [3]), the “Cholesterol, percentage of variation relative to the control group” value was “+32%”; the “Glucose, percentage of variation relative to the control group” value is −9%; the “Triglycerides, percentage of variation relative to the control group” value is given as −7%.
With `CN(CCOc1ccc(CC2SC(=O)NC2=O)cc1)c1ccccn1` (stereo not shown) [Rosiglitazone, rosiglitazone, reference compound], in the test with db/db mice (setting [4]), the “Cholesterol, percentage of variation relative to the control group” value is given as −30%; the “Glucose, percentage of variation relative to the control group” value is −41%; the “Triglycerides, percentage of variation relative to the control group” value is listed as −52%.
